Experimental data as given in patent US12077503B2, “Substituted cyclic amides and their use as herbicides” (FMC CORPORATION, priority 2015, dated 2024).

Columns and labels:
Format in all cases: in vivo
Kochia (Kochia scoparia) [1] = test: Test A preemergence; conditions: Bassia scoparia, pre-emergence, 240 h; for pest or weed control at 125 g/ha: 125 g ai/ha, Preemergence, visual injury rating after approximately 10 d, read-out: Kochia plant response rating (0 to 100 scale, 0 is no effect, 100 is complete control); for pest or weed control at 500 g/ha: 500 g ai/ha, preemergence, visual injury rating about 10 d after treatment, 0 to 100 scale (0 no effect, 100 complete control), read-out: Kochia plant response rating
How it was run: (§1)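 Visual injury scores from 0, no effect, to 100, complete control, were assigned versus untreated controls roughly 10 d after treatment in the greenhouse. Test chemicals, formulated with surfactant in a non-phytotoxic solvent, were applied to planted seeds as a preemergence soil spray or postemergence to one- to two-leaf plants 2 to 10 cm tall, in loam–sand soil.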

[2] = system: barnyardgrass (Echinochloa crus-galli); test: Test A preemergence; conditions: Echinochloa crus-galli, pre-emergence, 240 h; for pest or weed control at 125 g/ha: 125 g ai/ha, Preemergence, visual injury rating after approximately 10 d, read-out: Barnyardgrass plant response rating (0 to 100 scale, 0 is no effect, 100 is complete control); for pest or weed control at 500 g/ha: 500 g ai/ha, preemergence, visual injury rating about 10 d after treatment, 0 to 100 scale (0 no effect, 100 complete control), read-out: Barnyardgrass plant response rating
How it was run: as §1

[3] = system: giant foxtail (Setaria faberii); test: Test A preemergence; conditions: Setaria faberi, pre-emergence, 240 h; for pest or weed control at 125 g/ha: 125 g ai/ha, Preemergence, visual injury rating after approximately 10 d, read-out: Foxtail, Giant plant response rating (0 to 100 scale, 0 is no effect, 100 is complete control); for pest or weed control at 500 g/ha: 500 g ai/ha, preemergence, visual injury rating about 10 d after treatment, 0 to 100 scale (0 no effect, 100 complete control), read-out: Foxtail, Giant plant response rating
How it was run: as §1

[4] = system: pigweed (Amaranthus retroflexus); test: Test A preemergence; conditions: Amaranthus retroflexus, pre-emergence, 240 h; for pest or weed control at 125 g/ha: 125 g ai/ha, Preemergence, visual injury rating after approximately 10 d, read-out: Pigweed plant response rating (0 to 100 scale, 0 is no effect, 100 is complete control); for pest or weed control at 500 g/ha: 500 g ai/ha, preemergence, visual injury rating about 10 d after treatment, 0 to 100 scale (0 no effect, 100 complete control), read-out: Pigweed plant response rating
[5] = system: ragweed (common ragweed, Ambrosia elatior); test: Test A preemergence; conditions: Ambrosia artemisiifolia, pre-emergence, 240 h; for pest or weed control at 125 g/ha: 125 g ai/ha, Preemergence, visual injury rating after approximately 10 d, read-out: Ragweed plant response rating (0 to 100 scale, 0 is no effect, 100 is complete control); for pest or weed control at 500 g/ha: 500 g ai/ha, preemergence, visual injury rating about 10 d after treatment, 0 to 100 scale (0 no effect, 100 complete control), read-out: Ragweed plant response rating
How it was run: as §1

[6] = system: ryegrass, Italian (Italian ryegrass, Lolium multiflorum); test: Test A preemergence; conditions: Lolium multiflorum, pre-emergence, 240 h; for pest or weed control at 125 g/ha: 125 g ai/ha, Preemergence, visual injury rating after approximately 10 d, read-out: Ryegrass, Italian plant response rating (0 to 100 scale, 0 is no effect, 100 is complete control); for pest or weed control at 500 g/ha: 500 g ai/ha, preemergence, visual injury rating about 10 d after treatment, 0 to 100 scale (0 no effect, 100 complete control), read-out: Ryegrass, Italian plant response rating
How it was run: as §1

[7] = system: Galium (catchweed bedstraw, Galium aparine); test: Test A postemergence; conditions: Galium, post-emergence, 240 h, 125 g ai/ha, Postemergence; visual injury after approximately 10 d; 0 to 100 scale where 0 is no effect and 100 is complete control; read-out: Plant response rating, Galium
How it was run: as §1

Kochia (Kochia scoparia) [8] = test: Test A postemergence; conditions: Bassia scoparia, post-emergence, 240 h, 125 g ai/ha, Postemergence; visual injury after approximately 10 d; 0 to 100 scale where 0 is no effect and 100 is complete control; read-out: Plant response rating, Kochia
How it was run: as §1

[9] = system: barnyardgrass (Echinochloa crus-galli); test: Test A postemergence; conditions: Echinochloa crus-galli, post-emergence, 240 h, 125 g ai/ha, Postemergence; visual injury after approximately 10 d; 0 to 100 scale where 0 is no effect and 100 is complete control; read-out: Plant response rating, Barnyardgrass
How it was run: as §1

[10] = system: blackgrass (Alopecurus myosuroides); test: Test A postemergence; conditions: Alopecurus myosuroides, post-emergence, 240 h, 125 g ai/ha, Postemergence; visual injury after approximately 10 d; 0 to 100 scale where 0 is no effect and 100 is complete control; read-out: Plant response rating, Blackgrass
How it was run: as §1

corn (Zea mays) = test: Test A postemergence; conditions: Zea mays, post-emergence, 240 h, 125 g ai/ha, Postemergence; visual injury after approximately 10 d; 0 to 100 scale where 0 is no effect and 100 is complete control
How it was run: as §1

[11] = system: giant foxtail (Setaria faberii); test: Test A postemergence; conditions: Setaria faberi, post-emergence, 240 h, 125 g ai/ha, Postemergence; visual injury after approximately 10 d; 0 to 100 scale where 0 is no effect and 100 is complete control; read-out: Plant response rating, Foxtail, Giant
How it was run: as §1

[12] = system: pigweed (Amaranthus retroflexus); test: Test A postemergence; conditions: Amaranthus retroflexus, post-emergence, 240 h, 125 g ai/ha, Postemergence; visual injury after approximately 10 d; 0 to 100 scale where 0 is no effect and 100 is complete control; read-out: Plant response rating, Pigweed
How it was run: as §1

[13] = system: ragweed (common ragweed, Ambrosia elatior); test: Test A postemergence; conditions: Ambrosia artemisiifolia, post-emergence, 240 h, 125 g ai/ha, Postemergence; visual injury after approximately 10 d; 0 to 100 scale where 0 is no effect and 100 is complete control; read-out: Plant response rating, Ragweed
How it was run: as §1

[14] = system: ryegrass, Italian (Italian ryegrass, Lolium multiflorum); test: Test A postemergence; conditions: Lolium multiflorum, post-emergence, 240 h, 125 g ai/ha, Postemergence; visual injury after approximately 10 d; 0 to 100 scale where 0 is no effect and 100 is complete control; read-out: Plant response rating, Ryegrass, Italian
How it was run: as §1

[15] = system: wheat (Triticum aestivum); test: Test A postemergence; conditions: Triticum aestivum, post-emergence, 240 h, 125 g ai/ha, Postemergence; visual injury after approximately 10 d; 0 to 100 scale where 0 is no effect and 100 is complete control; read-out: Plant response rating, Wheat
How it was run: as §1

[16] = system: barnyardgrass (Echinochloa crus-galli); test: Test B flooded paddy test; conditions: Echinochloa crus-galli, Flood, 250 g ai/ha; scale of 0 to 100 where 0 is no effect and 100 is complete control; read-out: Barnyardgrass plant response rating
How it was run: (§2)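 Compound goes directly into floodwater once pots are flooded 3 cm above soil, targeting plants at two leaves; the water depth is then held for the test duration. Plants sit 13–15 d in a greenhouse and are rated visually, 100 denoting complete control.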

[17] = system: ducksalad (Heteranthera limosa); test: Test B flooded paddy test; conditions: Heteranthera limosa, Flood, 250 g ai/ha; scale of 0 to 100 where 0 is no effect and 100 is complete control; read-out: Ducksalad plant response rating
How it was run: as §2

rice (Oryra sativa) = test: Test B flooded paddy test; conditions: Oryza sativa, Flood, 250 g ai/ha; scale of 0 to 100 where 0 is no effect and 100 is complete control; read-out: Rice plant response rating
How it was run: as §2

[18] = system: sedge, umbrella (small-flower umbrella sedge, Cyperus difformis); test: Test B flooded paddy test; conditions: Cyperus difformis, Flood, 250 g ai/ha; scale of 0 to 100 where 0 is no effect and 100 is complete control; read-out: Sedge, Umbrella plant response rating
How it was run: as §2

Compound | pest or weed control at 125 g/ha (Kochia (Kochia scoparia) [1]) | pest or weed control at 500 g/ha (Kochia (Kochia scoparia) [1]) | pest or weed control at 125 g/ha [2] | pest or weed control at 500 g/ha [2] | pest or weed control at 125 g/ha [3] | pest or weed control at 500 g/ha [3] | pest or weed control at 125 g/ha [4] | pest or weed control at 500 g/ha [4] | pest or weed control at 125 g/ha [5] | pest or weed control at 500 g/ha [5] | pest or weed control at 125 g/ha [6] | pest or weed control at 500 g/ha [6] | pest or weed control at 125 g/ha [7] | pest or weed control at 125 g/ha (Kochia (Kochia scoparia) [8]) | pest or weed control at 125 g/ha [9] | pest or weed control at 125 g/ha [10] | Corn plant response rating (crop injury, 0 = no effect, 100 = complete kill) at 125 g/ha (corn (Zea mays)) | pest or weed control at 125 g/ha [11] | pest or weed control at 125 g/ha [12] | pest or weed control at 125 g/ha [13] | also measured
CCOc1cccc([C@H]2CNC(=O)[C@@H]2C(=O)Nc2ccccc2F)c1 [Compound 949] | 20% | 50% | 70% | 100% | 60% | 70% | 0% | 0% | 0% | 0% | 0% | 0% | 0% | 0% | 90% | 0% | 0% | 20% | 0% | 0% | pest or weed control at 125 g/ha [14]: 0%; plant injury at 125 g/ha [15]: 0%; pest or weed control at 250 g/ha [16]: 30%; pest or weed control at 250 g/ha [17]: 100%; pest or weed control at 250 g/ha (rice (Oryra sativa)): 15%; pest or weed control at 250 g/ha [18]: 0%
CN1C[C@H](c2csc(C(F)(F)F)c2)[C@@H](C(=O)Nc2ccccc2F)C1=O [Compound 958] | 0% | 90% | 90% | 90% | 90% | 90% | 0% | 30% | 20% | 60% | 0% | 20% | 30% | 0% | 70% | 30% | 0% | 90% | 0% | 0% | pest or weed control at 125 g/ha [14]: 0%; plant injury at 125 g/ha [15]: 0%; pest or weed control at 250 g/ha [16]: 55%; pest or weed control at 250 g/ha [17]: 100%; pest or weed control at 250 g/ha (rice (Oryra sativa)): 15%; pest or weed control at 250 g/ha [18]: 0%
